Values of other authors in patent US9630918B2, “Cysteine, N-acetylcysteine, and penicillamine related compounds, pharmaceutical compositions thereof, and methods of use” (priority 2015, dated 2017).

Experiments:
stable COPD = settings: patients with stable COPD, clinical study
[1] = not given; remark: listed apart in the source

oral bioavailability [1]	SMILES	interpatient oral variability	exacerbation frequency (stable COPD)	small airways function (stable COPD)
	CC(C)(S)[C@@H](N)C(=O)O [D-penicillamine, D-Penicillamine]	high degree of interpatient oral variability		
4-10%	CC(=O)N[C@@H](CS)C(=O)O [NAC, N-Acetyl-L-cysteine]		decrease exacerbation frequency	improve small airways function
